Consider 20 compounds from patent US10654808B2, “Tyrosine kinase inhibitor and pharmaceutical composition comprising same” (GUANGDONG RAYNOVENT BIOTECH CO., LTD., priority 2015, dated 2020).

The subject of test [1] is HUVEC. Put plainly: CellTiter-Glo luminescent cell viability assay, HUVEC stimulated with hVEGF-165. The test is classed as cell-based. To be noted: Homo sapiens, hVEGF-165 20 ng/ml, 72 hours, read-out: IC50 detected by CellTiter-Glo, HUVEC. How it is done:
The intracellular ATP changes were measured by CellTiter-Glo® Luminescent Cell Viability Assay. The IC50 value of the compounds was used as an index to evaluate the inhibitory effect of the compounds on HUVEC in vitro.
HUVEC cell line (ATCC), EGM-2 BulletKit (Lonza), hVEGF-165 (Cell Signaling), trypsin (Invitrogen), DPBS (Hyclone), 384 cell plate (Greiner), 384 compound plate (Greiner), CO2 incubator (Thermo), centrifuge (Eppendorf), Vi-cell cell counter (Beckman Coulter), Bravo Automatic Liquid Workstation (Agilent), Envision (Perkin Elmer)
B: Cell plating: HUVEC cells were resuspended with starved medium (only containing 2% FBS and 0.1% GA-1000) and diluted to a concentration of 20,000/mL. The diluted cells were added to a 384 plate (Greiner), 50 μl per well. The cell plates were placed in a 37° C., 5% CO2 incubator overnight.
C: Drug addition: the test compounds were diluted 4 times to obtain a total of 10 doses at a final concentration of 10 uM to 0.038 nM, two parallel wells. The middle plate was added with 47.6 uL of starved medium per well. 2.4 μl of compounds was transferred from a gradient dilution compound plate to a middle plate and mixed well. 5 μl of liquid was transferred from the middle plate to a cell plate. Incubate for 1 hour at 37° C. in a 5% CO2 incubator, 5 μl of starved medium containing hVEGF-165 (the final concentration was 20 ng/ml) and Heparin (the final concentration was 1 ng/m) were added and incubated at 37° C. in a 5% CO2 incubator for 72 hours.
D: After 72 hours, 30 μl of assay reagents was added and incubated at room temperature for 10-30 minutes, Envision was used to read the plate.
The reading was converted into suppression rate (%) (Max−Sample)/(Max−Min)*100%. Parameter curve fitting (Model 205 in XLFIT5, iDBS) was used to measure to obtain IC50 data.
For orientation: Cellular ATP, detected with luciferase, serves as a proxy for viable cell number.

Test [2] addresses T1, PDGFRB (Homo sapiens, UniProt P09619).
T1 construct: purchased Millipore
Put plainly: Z'-LYTE in vitro enzyme activity assay, PDGFRB. The test is classed as biochemical. To be noted: 100 μM ATP, 60 minutes, room temperature; read-out: IC50 detected by Z'-LYTE, PDGFRB. The method in brief: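 Z′-LYTE FRET kinase assay using 40 nM PDGFRB, 2 μM Tyr4 peptide and 100 μM ATP in HEPES pH 7.5 with Mg2+/Mn2+ and 1% DMSO. The reaction ran 60 min at room temperature, followed by development for 60 min at 23 °C. IC50 values came from 4-parameter fits over 11 concentrations (10 μM–0.17 nM).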

The test system of test [3] is Calu 6 Transplant model. Put plainly: Tumor growth inhibition (TGI), Calu 6 transplant model in mice. The format is in vivo. To be noted: QD. How it is done:
The evolution and growth trends of the tumor was evaluated by the relationship between tumor volume and time. The long axis (L) and short axis (W) of the subcutaneous tumor were measured twice a week by the caliper and the volume of the tumor (TV) was calculated by the formula ((L×W^2)/2). TGI was calculated by the difference between the median tumor volume of the mice in the solvent group and the median tumor volume of the mice in the drug group expressed as a percentage of the tumor volume in the solvent control group
Calculated by the following formula: % TGI=((intermediate tumor volume (control)−intermediate tumor volume (administration group))/intermediate tumor volume (control group))×100%
The original statistical analysis was performed by repeated variance analysis, and then a multiple comparisons were performed using the Scheffe psot hoc test method. Individual solvent (0.5% methylcellulose+0.2% Tween aqueous solution) was a negative control.

The target in test [4] is T2, FGFR1 (Homo sapiens, UniProt P11362).
T2 construct: purchased Life technology
Put plainly: Z'-LYTE in vitro enzyme activity assay, FGFR1. The format is biochemical. As to conditions: 25 μM ATP, 60 minutes, room temperature; read-out: IC50 detected by Z'-LYTE, FGFR1. The gist of the method: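 Z′-LYTE FRET assay with 1 nM FGFR1, 2 μM Tyr4 peptide and 25 μM ATP in HEPES pH 7.5 with Mg/Mn, 60 min at room temperature, then development 60 min at 23 °C. Compounds tested at 11 concentrations from 10 μM to 0.17 nM in 1% DMSO. IC50 from 4-parameter fit of inhibition.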

The target in test [5] is T3, VEGFR2 (Homo sapiens, UniProt P35968).
T3 construct: purchased Life technology
As to the kind of experiment: Z'-LYTE in vitro enzyme activity assay, VEGFR2. As to conditions: 100 μM ATP, 60 minutes, room temperature; read-out: IC50 detected by Z'-LYTE, VEGFR2. The test is classed as biochemical. The gist of the method:
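Reaction with 3 nM VEGFR2, 2 μM Tyr1 peptide and 100 μM ATP in HEPES pH 7.5/MgCl2/EGTA/BRIJ-35, 1% DMSO, 60 min at room temperature; development reagent then 60 min at 23° C. Compounds tested at 11 threefold dilutions, 10 μM–0.17 nM final, in duplicate; IC50 from 4-parameter fit of inhibition.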

pIC50: −log10 of the molar value.

The term pIC50 denotes −log10 of the IC50, conventionally taken in molar units.

T1 sequence (P09619 33-1106): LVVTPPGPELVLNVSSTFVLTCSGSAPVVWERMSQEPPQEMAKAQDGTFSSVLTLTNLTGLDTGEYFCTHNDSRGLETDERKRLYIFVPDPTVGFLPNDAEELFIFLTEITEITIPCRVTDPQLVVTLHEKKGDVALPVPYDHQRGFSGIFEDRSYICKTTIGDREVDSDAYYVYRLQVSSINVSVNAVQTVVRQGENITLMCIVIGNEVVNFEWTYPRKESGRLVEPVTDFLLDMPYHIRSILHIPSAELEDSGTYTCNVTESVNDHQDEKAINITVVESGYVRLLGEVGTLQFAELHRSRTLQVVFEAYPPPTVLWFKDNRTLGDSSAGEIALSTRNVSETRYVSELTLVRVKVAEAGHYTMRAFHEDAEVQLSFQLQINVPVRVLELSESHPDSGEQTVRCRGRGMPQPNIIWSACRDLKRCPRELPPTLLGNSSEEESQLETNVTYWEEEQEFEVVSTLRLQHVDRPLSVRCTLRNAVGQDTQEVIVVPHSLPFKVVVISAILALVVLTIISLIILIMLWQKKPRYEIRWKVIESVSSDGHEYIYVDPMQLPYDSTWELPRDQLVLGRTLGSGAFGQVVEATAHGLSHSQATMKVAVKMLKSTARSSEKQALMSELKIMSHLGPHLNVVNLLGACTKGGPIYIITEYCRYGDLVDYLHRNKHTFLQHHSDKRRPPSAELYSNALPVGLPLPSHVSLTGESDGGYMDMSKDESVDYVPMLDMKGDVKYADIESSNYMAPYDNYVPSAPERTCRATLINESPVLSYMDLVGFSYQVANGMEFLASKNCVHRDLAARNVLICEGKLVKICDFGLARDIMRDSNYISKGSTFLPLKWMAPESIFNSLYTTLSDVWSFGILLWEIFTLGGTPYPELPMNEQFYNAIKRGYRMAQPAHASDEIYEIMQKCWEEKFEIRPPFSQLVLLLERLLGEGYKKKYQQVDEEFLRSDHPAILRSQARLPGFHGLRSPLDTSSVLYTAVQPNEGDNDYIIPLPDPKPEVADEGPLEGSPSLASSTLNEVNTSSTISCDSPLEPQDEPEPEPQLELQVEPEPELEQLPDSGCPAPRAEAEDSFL
T3 sequence (P35968 20-1356): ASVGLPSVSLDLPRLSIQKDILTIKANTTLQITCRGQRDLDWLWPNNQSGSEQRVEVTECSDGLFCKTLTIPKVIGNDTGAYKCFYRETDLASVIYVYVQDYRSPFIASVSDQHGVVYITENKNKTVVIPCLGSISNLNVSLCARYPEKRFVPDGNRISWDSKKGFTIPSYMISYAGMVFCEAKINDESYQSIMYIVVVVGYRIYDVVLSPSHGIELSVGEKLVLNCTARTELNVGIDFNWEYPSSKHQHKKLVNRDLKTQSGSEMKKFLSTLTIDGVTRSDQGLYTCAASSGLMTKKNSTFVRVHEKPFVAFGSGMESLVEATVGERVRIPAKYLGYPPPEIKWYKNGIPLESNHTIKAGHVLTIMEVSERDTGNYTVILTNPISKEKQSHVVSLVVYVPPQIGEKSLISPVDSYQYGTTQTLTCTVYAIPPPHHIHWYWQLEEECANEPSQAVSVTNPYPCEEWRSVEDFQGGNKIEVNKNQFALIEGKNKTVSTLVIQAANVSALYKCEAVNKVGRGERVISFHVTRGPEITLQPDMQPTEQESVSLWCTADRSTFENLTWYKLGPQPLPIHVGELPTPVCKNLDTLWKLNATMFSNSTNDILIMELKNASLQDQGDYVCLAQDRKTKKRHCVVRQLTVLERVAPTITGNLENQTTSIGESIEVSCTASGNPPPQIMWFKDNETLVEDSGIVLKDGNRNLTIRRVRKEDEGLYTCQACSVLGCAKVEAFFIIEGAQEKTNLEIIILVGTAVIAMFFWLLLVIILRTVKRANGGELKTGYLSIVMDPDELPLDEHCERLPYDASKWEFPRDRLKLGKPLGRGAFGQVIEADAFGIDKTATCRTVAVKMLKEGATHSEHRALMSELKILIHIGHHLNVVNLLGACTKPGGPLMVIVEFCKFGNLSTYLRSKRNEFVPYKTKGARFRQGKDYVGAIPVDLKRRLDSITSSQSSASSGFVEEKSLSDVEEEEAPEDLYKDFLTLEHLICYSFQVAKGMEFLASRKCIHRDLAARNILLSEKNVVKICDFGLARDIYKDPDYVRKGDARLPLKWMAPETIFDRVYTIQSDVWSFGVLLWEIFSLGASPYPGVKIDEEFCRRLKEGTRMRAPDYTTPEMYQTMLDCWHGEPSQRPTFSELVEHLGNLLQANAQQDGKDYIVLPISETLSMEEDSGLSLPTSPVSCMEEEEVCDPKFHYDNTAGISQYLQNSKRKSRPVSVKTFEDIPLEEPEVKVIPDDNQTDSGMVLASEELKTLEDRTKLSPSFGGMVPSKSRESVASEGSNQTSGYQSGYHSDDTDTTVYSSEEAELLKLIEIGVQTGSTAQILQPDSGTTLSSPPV
T2 sequence (P11362 22-822): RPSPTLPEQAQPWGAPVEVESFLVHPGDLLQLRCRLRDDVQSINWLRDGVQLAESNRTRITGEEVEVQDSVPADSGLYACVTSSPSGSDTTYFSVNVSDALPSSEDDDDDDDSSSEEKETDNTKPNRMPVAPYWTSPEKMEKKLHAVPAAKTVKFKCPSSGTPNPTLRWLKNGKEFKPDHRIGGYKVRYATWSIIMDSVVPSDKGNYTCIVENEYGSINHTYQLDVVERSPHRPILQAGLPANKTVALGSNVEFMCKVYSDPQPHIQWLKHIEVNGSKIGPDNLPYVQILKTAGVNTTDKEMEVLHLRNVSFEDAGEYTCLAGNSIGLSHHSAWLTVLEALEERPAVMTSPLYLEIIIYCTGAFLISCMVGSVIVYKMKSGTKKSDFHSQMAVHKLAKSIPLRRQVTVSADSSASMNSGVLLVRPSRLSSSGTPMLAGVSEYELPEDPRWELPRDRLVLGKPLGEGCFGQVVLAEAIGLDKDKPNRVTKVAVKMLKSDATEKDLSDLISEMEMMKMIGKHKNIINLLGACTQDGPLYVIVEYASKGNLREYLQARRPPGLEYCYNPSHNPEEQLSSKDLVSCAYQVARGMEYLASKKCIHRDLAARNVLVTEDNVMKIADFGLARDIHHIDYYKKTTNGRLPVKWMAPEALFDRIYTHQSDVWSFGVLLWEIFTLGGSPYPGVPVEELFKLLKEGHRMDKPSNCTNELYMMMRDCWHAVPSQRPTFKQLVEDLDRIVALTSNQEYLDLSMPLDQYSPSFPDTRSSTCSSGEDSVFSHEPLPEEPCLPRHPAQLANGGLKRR

Consider `CCNC(=O)Nc1ccc(Oc2ccnc3cc(-c4cn(C)cn4)ccc23)c(F)c1Cl` [Example 216], for which the pIC50 in test [1] was above 7.00; in test [2] it was 6.70 to 7.30; in test [4], above 7.30; in test [5], above 7.30. In test [3] (10 mg/kg), the “TGI % (last administration)” value is 83%.
Regarding `[2H]C([2H])([2H])NC(=O)c1coc2cc(Oc3ccnc4cc(OC)c(C(N)=O)cc34)ccc12` [Example 200], the pIC50 in test [1] is above 7.00; in test [2] it was above 7.30; in test [4], 6.70 to 7.30; in test [5], above 7.30. Also, the “TGI % (last administration)” value in test [3] (100 mg/kg) was 59%.
`CCNC(=S)Nc1ccc(Oc2ccnc3cc(OC)c(C(N)=O)cc23)cc1Cl` [Example 56]: the negative logarithm of the IC50 (pIC50) is above 7.00 in test [1], above 7.30 in test [2], 6.70 to 7.30 in test [4] and above 7.30 in test [5].
Regarding `CCNC(=O)c1coc2cc(Oc3ccnc4cc(OC)c(C(N)=O)cc34)ccc12` [Example 210], the negative-log IC50 (pIC50) in test [1] was above 7.00; in test [2] it was above 7.30; in test [4], 6.00 to 6.70; in test [5], above 7.30.
Take `[2H]C([2H])([2H])NC(=S)Nc1ccc(Oc2ccnc3cc(OC)c(C(N)=O)cc23)c(F)c1Cl` [Example 112]: the negative-log IC50 (pIC50) in test [1] was above 7.00; in test [2] it was above 7.30; in test [4], above 7.30; in test [5] it was above 7.30.
`COc1cc2nccc(Oc3ccc(NC(=S)N4CC(F)C4)c(Cl)c3F)c2cc1C(N)=O` [Example 123]: the pIC50 in test [1] is 6.00 to 7.00; in test [2] it was 6.70 to 7.30; in test [4] it was above 7.30; in test [5], above 7.30.
With `Cn1cnc(-c2ccc3c(Oc4ccc(NC(=S)NC5CC5)c(Cl)c4)ccnc3c2)c1` [Example 212], the pIC50 was 6.00 to 7.00 in test [1], above 7.30 in test [2], 6.00 to 6.70 in test [4] and above 7.30 in test [5].
As to `COc1cc2nccc(Oc3ccc(NC(=S)NC4CCC4)c(Cl)c3)c2cc1C(N)=O` [Example 6], the pIC50 in test [1] is above 7.00; in test [2], 6.70 to 7.30; in test [4], 6.00 to 6.70; in test [5], above 7.30.
For `COc1cc2nccc(Oc3ccc(NC(=S)NC4CC4)c(Cl)c3)c2cc1C(=O)NO` [Example 50], in that order: 6.00 to 7.00, 6.70 to 7.30, 6.00 to 6.70 and above 7.30.
For `CCNC(=S)Nc1ccc(Oc2ccnc3cc(OC)c(C(N)=O)cc23)c(F)c1Cl` [Example 124], the pIC50 in test [1] is above 7.00; in test [2], above 7.30; in test [4], above 7.30; in test [5], above 7.30.
Consider `COc1cc2nccc(Oc3ccc(NC(=S)NC4CC4)c(Cl)c3)c2cc1C(N)=O` [Example 1], for which the negative-log IC50 (pIC50) in test [1] was above 7.00; in test [2] it was 6.70 to 7.30; in test [4], 6.00 to 6.70; in test [5], above 7.30. In addition, the “TGI % (last administration)” value in test [3] (50 mg/kg) is given as 57%.
With `COc1cc2nccc(Oc3ccc(NC(=S)N4CCCC4)c(Cl)c3F)c2cc1C(N)=O` [Example 98], the negative logarithm of the IC50 (pIC50) in test [1] is 6.00 to 7.00; in test [2], 6.70 to 7.30; in test [4] it was above 7.30; in test [5] it was above 7.30.
Regarding `COc1cc2nccc(Oc3ccc(NC(=S)NCC(F)(F)F)c(Cl)c3)c2cc1C(N)=O` [Example 16], the pIC50 was above 7.00 in test [1], 6.70 to 7.30 in test [2], 6.00 to 6.70 in test [4] and above 7.30 in test [5].
For `COc1cc2nccc(Oc3ccc(NC(=S)Nc4cnn(C(C)C)c4)c(Cl)c3)c2cc1C(N)=O` [Example 70], in that order: above 7.00, above 7.30, 6.00 to 6.70 and above 7.30.
In the same order, the values of `[2H]C([2H])([2H])NC(=O)c1coc2cc(Oc3ccnc4cc(-c5cn(C)cn5)ccc34)ccc12` [Example 224] are above 7.00, above 7.30, above 7.30 and above 7.30.
For `COCCOc1cc2nccc(Oc3ccc(NC(=S)NC4CC4)c(Cl)c3)c2cc1C(N)=O` [Example 174], in that order: above 7.00, above 7.30, 6.00 to 6.70 and above 7.30.
Turning to `COc1cc2nccc(Oc3ccc(NC(=S)N4CC[C@H](F)C4)c(Cl)c3F)c2cc1C(N)=O` [Example 103], the pIC50 in test [1] is 6.00 to 7.00; in test [2], 6.00 to 6.70; in test [4], 6.70 to 7.30; in test [5], above 7.30.
In the same order, the values of `COc1cc2nccc(Oc3ccc(NC(=S)NC4CC4)c(Cl)c3F)c2cc1C(N)=O` [Example 78] are above 7.00, above 7.30, 6.70 to 7.30 and above 7.30.
In the same order, the values of `Cn1cnc(-c2ccc3c(Oc4ccc(NC(=O)NC5CC5)c(Cl)c4F)ccnc3c2)c1` [Example 214] are above 7.00, 6.70 to 7.30, above 7.30 and above 7.30.
For `COc1cc2nccc(Oc3cc4occ(C(=O)NC5CC5)c4cc3F)c2cc1C(N)=O` [Example 207], in that order: 6.00 to 7.00, above 7.30, 6.00 to 6.70 and above 7.30.
